One experiment deals with T1, PI3Kγ (p120γ) (Homo sapiens, UniProt P48736).
T1 construct: purchased Promega V1761
The experiment in a line: Inhibition of PI3K kinase activity (ADP Glo), PI3Kγ. The settings on record: read-out: biochemical potency (PI3Kγ IC50). The method, then: Compounds were evaluated to determine the potency with which they inhibited the kinase activity of the Class I PI3K subunits p110α/p85α (Promega, Cat #V1721), p110β/p85α (Promega, Cat #V1751), p120γ (Promega, Cat #V1761) and p110δ/p85α (Promega, Cat #V1771). Activity was determined as a function of ADP (adenosine diphosphate) generated from ATP consumed during the phosphorylation of Phosphatidylinositol 4,5-bisphosphate (PIP2) (Promega, Cat #V1701) to yield Phosphatidylinositol (3,4,5)-trisphosphate (PIP3). ADP levels in the assay mixture at the end of the reaction were quantitated using ADP Glo (Promega, Cat #V9103) according to the manufacturer's recommended protocol.
Enzyme was prepared for each of the PI3K subunits in 100 mM HEPES, pH 7.4, 100 mM NaCl, 6 mM MgCl2 and 0.05% BSA. p110α/p85α was prepared at 2 nM (2×), p110β/p85α was prepared at 7 nM (2×), p120γ was prepared at 8 nM (2×) and p110δ/p85α was prepared at 2 nM (2×). Five microliters of 2× enzyme dilution of each PI3K subunit were added to a 384-well white Opti-plates pre-dispensed with compound and allowed to incubate for 1 h at rt. A substrate mix containing 0.1 mg/ml (2×) of PIP2 and 50 μM (2×) ATP (Promega, Cat #V915) was prepared in 25 mM HEPES and 0.5 mM EGTA. Reactions were initiated by addition of 5 μl of 2× substrate mix to each well of the plates containing various PI3K isoforms and allowed to proceed for 60 min at rt. Ten microliters of ADP Glo reagent 1 were added to the wells of each plate and allowed to incubate at rt for 45 min according to the manufacturer's directions. Following incubation, 20 μl of ADP Glo reagent 2 was added to each plate and allowed to incubate for an additional 45 min. Luminescent signal, generated by ADP Glo, was quantified by reading on a Perkin Elmer Envision multimode reader. Compound potencies (IC50's) were determined using a standard 4-parameter fit non-linear regression fit.
Background: In ADP-Glo the light output rises with the ADP produced.

For another experiment, the target named is T2, PI3Kγ (Homo sapiens, UniProt P48736).
T2 construct: host or cells: THP-1
The experiment can be described thus: PI3Kγ cellular assay in THP-1 cells (AKT pS473 AlphaLISA). In kind it is cell-based. The procedure: Twenty microliters of serum starved THP-1 cells were added to the compound plate in serum free DMEM at a density of 9×10^6 cells per ml. Final assay conditions comprised 1.8×10^5 THP-1 cells per well with test compounds in 2% DMSO across a concentration range from 4 nM to 30 μM. […] Briefly, 10 μL of 4× lysis buffer was added to cells after stimulation. Following 60 min incubation at rt, 10 μL of cell lysate was transferred to a fresh 384-well Opti-plate to which 5 μL of AlphaLisa acceptor beads and 5 μL of AlphaLisa donor beads had been added. […] PI3Kγ activity was evaluated as a correlate of endogenous AKT phosphorylation levels. Percentage maximum activity in each test well was calculated based on DMSO (100% activity) and positive control treated cell wells (0% activity). The potencies (IC50's) of test compounds were determined using a standard 4-parameter fit non-linear regression fit.

The mark [1] stands for this setting: Table 1, rhMCP-1 stimulated AKT pS473, read-out: cellular potency (PI3Kγ IC50).
[2] abbreviates: Table 2, rhMCP-1 stimulated AKT pS473, read-out: cellular potency (PI3Kγ IC50).
Setting [3] is: AKT pS473, read-out: cellular potency (PI3Kγ IC50).

Read-outs that look alike come from different tables or passages of the source.

T2 sequence (P48736 whole entry): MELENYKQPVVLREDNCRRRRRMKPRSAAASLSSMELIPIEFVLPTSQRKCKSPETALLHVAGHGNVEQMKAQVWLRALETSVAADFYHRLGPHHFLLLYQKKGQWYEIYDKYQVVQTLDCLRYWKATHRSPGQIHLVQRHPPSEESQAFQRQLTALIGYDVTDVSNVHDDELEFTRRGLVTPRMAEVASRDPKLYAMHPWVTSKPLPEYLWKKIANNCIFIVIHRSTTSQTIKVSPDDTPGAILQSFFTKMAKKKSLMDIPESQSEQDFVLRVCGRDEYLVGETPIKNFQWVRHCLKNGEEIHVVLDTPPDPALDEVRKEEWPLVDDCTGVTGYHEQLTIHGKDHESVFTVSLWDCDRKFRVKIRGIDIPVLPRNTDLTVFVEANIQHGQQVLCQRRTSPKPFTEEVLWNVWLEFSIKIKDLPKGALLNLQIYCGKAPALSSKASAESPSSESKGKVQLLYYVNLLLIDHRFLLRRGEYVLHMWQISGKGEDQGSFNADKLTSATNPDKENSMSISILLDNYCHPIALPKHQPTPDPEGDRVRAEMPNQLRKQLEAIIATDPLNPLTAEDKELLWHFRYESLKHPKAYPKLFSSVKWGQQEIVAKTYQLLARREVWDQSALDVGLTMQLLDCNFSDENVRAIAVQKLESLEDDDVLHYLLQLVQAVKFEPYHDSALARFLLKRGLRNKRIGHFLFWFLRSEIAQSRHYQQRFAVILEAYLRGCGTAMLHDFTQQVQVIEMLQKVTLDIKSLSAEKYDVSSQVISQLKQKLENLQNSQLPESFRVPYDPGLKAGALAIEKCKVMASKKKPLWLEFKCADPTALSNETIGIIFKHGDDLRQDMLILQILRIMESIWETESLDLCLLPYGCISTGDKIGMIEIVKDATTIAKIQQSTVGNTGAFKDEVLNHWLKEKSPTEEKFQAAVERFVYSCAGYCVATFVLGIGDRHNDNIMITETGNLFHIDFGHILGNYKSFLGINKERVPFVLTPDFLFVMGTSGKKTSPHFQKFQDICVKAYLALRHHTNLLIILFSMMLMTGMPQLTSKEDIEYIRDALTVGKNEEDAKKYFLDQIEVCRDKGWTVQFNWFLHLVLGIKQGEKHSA
T1 sequence (P48736 whole entry): as above

As usually defined, the IC50 is the midpoint of a concentration-inhibition curve. As for `CC(C)[C@H](CO)NC(=O)c1c(N)nn2ccc(-c3cc4c(c(NS(C)(=O)=O)c3)C(=O)N([C@@H](C)C3CC3)C4)nc12` [Example 96, 2-Amino-5-{2-[(1S)-1-cyclopropylethyl]-7-methanesulfonamido-1-oxo-2,3-dihydro-1H-isoindol-5-yl}-N-[(2R)-1-hydroxy-3-methylbutan-2-yl]pyrazolo[1,5-a]pyrimidine-3-carboxamide], the IC50 at PI3Kγ (p120γ) (Table 1, p120γ) was below 100 nM; on PI3Kγ (setting [1]) it was below 100 nM.

For the molecule `C[C@H](N1Cc2cc(-c3ccn4nc(N)c(C(=O)N[C@H]5CC[C@@](C)(O)CC5)c4n3)cc(NS(C)(=O)=O)c2C1=O)C(F)(F)F` [Example 122, 2-Amino-5-{7-methanesulfonamido-1-oxo-2-[(2S)-1,1,1-trifluoropropan-2-yl]-2,3-dihydro-1H-isoindol-5-yl}-N-[cis-4-hydroxy-4-methylcyclohexyl]pyrazolo[1,5-a]pyrimidine-3-carboxamide], the IC50 at PI3Kγ (p120γ) (Table 1, p120γ) is below 100 nM; at PI3Kγ (setting [1]), below 100 nM.

In the case of `C[C@@H](C1CC1)N1Cc2cc(-c3ccn4nc(N)c(C(=O)NC5CC5)c4n3)cc(O[C@H]3CCOC3)c2C1=O` [Example 146, 2-Amino-N-cyclopropyl-5-{2-[(1S)-1-cyclopropylethyl]-1-oxo-7-[(3S)-oxolan-3-yloxy]-2,3-dihydro-1H-isoindol-5-yl}pyrazolo[1,5-a]pyrimidine-3-carboxamide], the IC50 is below 100 nM at PI3Kγ (p120γ) (Table 1, p120γ) and below 100 nM on PI3Kγ (setting [1]).

`CCn1cc(NC(=O)c2c(N)nn3ccc(-c4cc(C)c5c(c4)CN([C@@H](C)C4CC4)C5=O)nc23)cn1` [Example 295]: the IC50 at PI3Kγ (p120γ) (Table 2, p120γ) was below 100 nM; on PI3Kγ (setting [2]), 100 to 1000 nM.

As for `Cc1cc(-c2ccn3nc(N)c(C(=O)N[C@H]4CCC[C@@H]4O)c3n2)cc2c1C(=O)N([C@@H](C)C1CC1)C2` [Example 210], the IC50 on PI3Kγ (p120γ) (Table 2, p120γ) is below 100 nM; at PI3Kγ (setting [2]) it was 100 to 1000 nM.

On to `C[C@@H](C1CC1)N1Cc2cc(-c3ccn4nc(N)c(C(=O)NC5CC5(C)C)c4n3)cc(NS(C)(=O)=O)c2C1=O` (some centres unmarked) [Example 394], for which the IC50 at PI3Kγ (p120γ) was below 100 nM; at PI3Kγ (setting [3]) it was 100 to 1000 nM.

On to `Cc1cc(-c2ccn3nc(N)c(C(=O)NCC(C)(C)O)c3n2)cc2c1C(=O)N([C@@H](C)C1CC1)C2` [Example 203], for which the IC50 at PI3Kγ (p120γ) (Table 2, p120γ) was below 100 nM; at PI3Kγ (setting [2]) it was 100 to 1000 nM.

As to `C[C@@H](C1CC1)N1Cc2cc(-c3ccn4nc(N)c(C(=O)Nc5ccncc5)c4n3)cc(NS(C)(=O)=O)c2C1=O` [Example 100, (S)-2-Amino-5-(2-(1-cyclopropylethyl)-7-(methylsulfonamido)-1-oxoisoindolin-5-yl)-N-(pyridin-4-yl)pyrazolo[1,5-a]pyrimidine-3-carboxamide], the IC50 at PI3Kγ (p120γ) (Table 1, p120γ) is below 100 nM; on PI3Kγ (setting [1]), below 100 nM.

`COC(=O)c1ccc(NC(=O)c2c(N)nn3ccc(-c4cc5c(c(NS(C)(=O)=O)c4)C(=O)N([C@@H](C)C4CC4)C5)nc23)cn1` [Example 395]: the results for the IC50 on PI3Kγ (p120γ) and on PI3Kγ (setting [3]) were below 100 nM and 100 to 1000 nM, respectively.

As for `Cc1cc(-c2ccn3nc(N)c(C(=O)N4CCN(C)CC4)c3n2)cc2c1C(=O)N(C(C)C1CC1)C2` (centres unmarked) [Example 291], the IC50 at PI3Kγ (p120γ) (Table 2, p120γ) is above 1000 nM; on PI3Kγ (setting [2]) it was above 1000 nM.

With `Cc1cc(-c2ccn3nc(N)c(C(=O)N[C@H](C)CN)c3n2)cc2c1C(=O)N([C@@H](C)C1CC1)C2` [Example 230], the IC50 at PI3Kγ (p120γ) (Table 2, p120γ) was below 100 nM; on PI3Kγ (setting [2]), 100 to 1000 nM.

In the case of `Cc1cc(-c2ccn3nc(N)c(C(=O)N[C@@H]4CCCNC4)c3n2)cc2c1C(=O)N([C@@H](C)C1CC1)C2` [Example 231], the IC50 on PI3Kγ (p120γ) (Table 2, p120γ) is below 100 nM; on PI3Kγ (setting [2]) it was 100 to 1000 nM.

With `Cc1cc(-c2ccn3nc(N)c(C(=O)NCC4(O)CC4)c3n2)cc2c1C(=O)N([C@@H](C)C1CC1)C2` [Example 188], the IC50 on PI3Kγ (p120γ) (Table 2, p120γ) was below 100 nM; on PI3Kγ (setting [2]), 100 to 1000 nM.

As to `CC(C)[C@H](CO)NC(=O)c1c(N)nn2ccc(-c3cc4c(c(NS(C)(=O)=O)c3)C(=O)N([C@@H](C)C(F)(F)F)C4)nc12` [Example 399], the IC50 at PI3Kγ (p120γ) is below 100 nM; at PI3Kγ (setting [3]), 100 to 1000 nM.

Take `C[C@H](CO)NC(=O)c1c(N)nn2ccc(-c3cc4c(c(OC(F)(F)F)c3)C(=O)N([C@@H](C)C3CC3)C4)nc12` [Example 22, 2-Amino-5-{2-[(1S)-1-cyclopropylethyl]-1-oxo-7-(trifluoromethoxy)-2,3-dihydro-1H-isoindol-5-yl}-N-[(2R)-1-hydroxypropan-2-yl]pyrazolo[1,5-a]pyrimidine-3-carboxamide]: the IC50 on PI3Kγ (p120γ) (Table 1, p120γ) is below 100 nM; at PI3Kγ (setting [1]) it was below 100 nM.

As for `C[C@@H](C1CC1)N1Cc2cc(-c3ccn4nc(N)c(C(=O)N[C@H]5CC[C@H](C(C)(C)O)CC5)c4n3)cc(NS(C)(=O)=O)c2C1=O` [Example 91, 2-Amino-5-{2-[(1S)-1-cyclopropylethyl]-7-methanesulfonamido-1-oxo-2,3-dihydro-1H-isoindol-5-yl}-N-[trans-4-(2-hydroxypropan-2-yl)cyclohexyl]pyrazolo[1,5-a]pyrimidine-3-carboxamide], the IC50 at PI3Kγ (p120γ) (Table 1, p120γ) is below 100 nM; at PI3Kγ (setting [1]), below 100 nM.

`Cc1cc(-c2ccn3nc(N)c(C(=O)N[C@@H]4CCCC[C@H]4O)c3n2)cc2c1C(=O)N([C@@H](C)C1CC1)C2` [Example 229]: the IC50 at PI3Kγ (p120γ) (Table 2, p120γ) was below 100 nM; on PI3Kγ (setting [2]) it was 100 to 1000 nM.

Regarding `Cc1cc(-c2ccn3nc(N)c(C(=O)N[C@H]4CC[C@@H](O)C4)c3n2)cc2c1C(=O)N([C@@H](C)C1CC1)C2` [Example 239], the IC50 is below 100 nM on PI3Kγ (p120γ) (Table 2, p120γ) and 100 to 1000 nM at PI3Kγ (setting [2]).

With `C[C@@H](C1CC1)N1Cc2cc(-c3ccn4nc(N)c(C(=O)Nc5cccc(F)c5)c4n3)cc(NS(C)(=O)=O)c2C1=O` [Example 378], the concentration for half-maximal inhibition (IC50) on PI3Kγ (p120γ) is below 100 nM; at PI3Kγ (setting [3]), 100 to 1000 nM.

In the case of `C[C@@H](C1CC1)N1Cc2cc(-c3ccn4nc(N)c(C(=O)N[C@H]5CNC(=O)C5)c4n3)cc(NS(C)(=O)=O)c2C1=O` [Example 374], the results for the IC50 on PI3Kγ (p120γ) and at PI3Kγ (setting [3]) were below 100 nM and 100 to 1000 nM, respectively.

As to `Cc1cc(-c2ccn3nc(N)c(C(=O)N[C@H]4CCCNC4)c3n2)cc2c1C(=O)N([C@@H](C)C1CC1)C2` [Example 243], the IC50 on PI3Kγ (p120γ) (Table 2, p120γ) is below 100 nM; on PI3Kγ (setting [2]) it was 100 to 1000 nM.

As to `C[C@@H](C1CC1)N1Cc2cc(-c3ccn4nc(N)c(C(=O)N[C@H]5CCNC5=O)c4n3)cc(NS(C)(=O)=O)c2C1=O` [Example 372], the IC50 at PI3Kγ (p120γ) was below 100 nM; on PI3Kγ (setting [3]), 100 to 1000 nM.

With `C[C@@H](C1CC1)N1Cc2cc(-c3ccn4nc(N)c(C(=O)N[C@@H]5CC[C@@H](O)C5)c4n3)cc(OC(F)(F)F)c2C1=O` [Example 37, 2-Amino-5-{2-[(1S)-1-cyclopropylethyl]-1-oxo-7-(trifluoromethoxy)-2,3-dihydro-1H-isoindol-5-yl}-N-[(1R,3R)-3-hydroxycyclopentyl]pyrazolo[1,5-a]pyrimidine-3-carboxamide], the IC50 on PI3Kγ (p120γ) (Table 1, p120γ) is below 100 nM; on PI3Kγ (setting [1]) it was below 100 nM.

In the case of `CC[C@H](N1Cc2cc(-c3ccn4nc(N)c(C(=O)NC5COC5)c4n3)cc(NS(C)(=O)=O)c2C1=O)C(F)(F)F` [Example 123, 2-Amino-5-{7-methanesulfonamido-1-oxo-2-[(2S)-1,1,1-trifluorobutan-2-yl]-2,3-dihydro-1H-isoindol-5-yl}-N-(oxetan-3-yl)pyrazolo[1,5-a]pyrimidine-3-carboxamide], the IC50 was below 100 nM on PI3Kγ (p120γ) (Table 1, p120γ) and below 100 nM on PI3Kγ (setting [1]).

Regarding `C[C@@H](C1CC1)N1Cc2cc(-c3ccn4nc(N)c(C(=O)NC5CC5)c4n3)cc(O[C@H]3CC[C@H](O)CC3)c2C1=O` [Example 149, 2-Amino-N-cyclopropyl-5-{2-[(1S)-1-cyclopropylethyl]-1-oxo-7-{[(1R,4R)-4-hydroxycyclohexyl]oxy}-2,3-dihydro-1H-isoindol-5-yl}pyrazolo[1,5-a]pyrimidine-3-carboxamide], the IC50 is below 100 nM at PI3Kγ (p120γ) (Table 1, p120γ) and below 100 nM on PI3Kγ (setting [1]).

The values are drawn from patent US20230024302A1, “2,3,5-TRISUBSTITUTED PYRAZOLO[1,5-A]PYRIMIDINE COMPOUNDS” (Arcus Biosciences, Inc., priority 2019, published 2023).
